Measurements reported in publication PMC9030254, “Target Hopping from Protein Kinases to PXR: Identification of Small-Molecule Protein Kinase Inhibitors as Selective Modulators of Pregnane X Receptor from TüKIC Library” (Cells, 2022).

Experiments:
Experiment in all cases: Kinase profiling
Assay type in all cases: biochemical
[1] = target: T1, TSK2 (Homo sapiens, UniProt Q96PF2)
T1 construct: purchased ProQinase (Freiburg, Germany)
T1 sequence (Q96PF2 1-358): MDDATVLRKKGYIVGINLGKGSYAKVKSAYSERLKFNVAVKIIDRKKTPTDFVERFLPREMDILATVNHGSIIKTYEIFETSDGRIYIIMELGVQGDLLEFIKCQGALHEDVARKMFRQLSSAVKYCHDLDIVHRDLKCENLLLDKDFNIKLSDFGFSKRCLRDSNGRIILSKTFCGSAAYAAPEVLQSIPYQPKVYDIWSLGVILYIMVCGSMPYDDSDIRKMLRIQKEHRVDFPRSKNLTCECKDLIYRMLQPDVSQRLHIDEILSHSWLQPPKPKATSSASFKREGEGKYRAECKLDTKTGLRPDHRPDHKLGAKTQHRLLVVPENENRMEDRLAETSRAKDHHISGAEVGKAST
Description: (§1) The analysis was performed by ProQinase (Freiburg, Germany).

[2] = target: T2, CDK4/CycD1 (Homo sapiens, UniProt P11802)
T2 construct: purchased ProQinase (Freiburg, Germany)
Description: as §1

[3] = target: T3, NLK (Homo sapiens, UniProt Q9UBE8)
T3 construct: purchased ProQinase (Freiburg, Germany)
T3 sequence (Q9UBE8 1-527): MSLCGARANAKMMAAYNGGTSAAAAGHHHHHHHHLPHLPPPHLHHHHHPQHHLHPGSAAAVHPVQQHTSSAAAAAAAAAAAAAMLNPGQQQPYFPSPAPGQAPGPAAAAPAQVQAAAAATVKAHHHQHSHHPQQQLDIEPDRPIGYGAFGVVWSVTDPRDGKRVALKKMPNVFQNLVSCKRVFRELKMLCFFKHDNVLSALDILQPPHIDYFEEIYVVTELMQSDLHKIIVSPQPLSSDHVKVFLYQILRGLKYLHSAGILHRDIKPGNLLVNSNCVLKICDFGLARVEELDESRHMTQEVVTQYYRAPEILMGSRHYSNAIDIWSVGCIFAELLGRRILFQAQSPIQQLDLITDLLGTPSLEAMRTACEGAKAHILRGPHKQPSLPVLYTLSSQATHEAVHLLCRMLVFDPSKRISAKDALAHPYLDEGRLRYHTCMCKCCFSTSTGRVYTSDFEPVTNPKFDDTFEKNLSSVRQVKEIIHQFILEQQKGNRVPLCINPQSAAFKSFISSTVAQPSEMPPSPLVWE
Description: as §1

[4] = target: T4, FAK (Homo sapiens, UniProt Q05397)
T4 construct: purchased ProQinase (Freiburg, Germany)
Description: as §1

[5] = target: T5, MKNK1 (Homo sapiens, UniProt Q9BUB5)
T5 construct: purchased ProQinase (Freiburg, Germany)
Description: as §1

[6] = target: T6, MERTK (Homo sapiens, UniProt Q12866)
T6 construct: purchased ProQinase (Freiburg, Germany)
T6 sequence (Q12866 21-999): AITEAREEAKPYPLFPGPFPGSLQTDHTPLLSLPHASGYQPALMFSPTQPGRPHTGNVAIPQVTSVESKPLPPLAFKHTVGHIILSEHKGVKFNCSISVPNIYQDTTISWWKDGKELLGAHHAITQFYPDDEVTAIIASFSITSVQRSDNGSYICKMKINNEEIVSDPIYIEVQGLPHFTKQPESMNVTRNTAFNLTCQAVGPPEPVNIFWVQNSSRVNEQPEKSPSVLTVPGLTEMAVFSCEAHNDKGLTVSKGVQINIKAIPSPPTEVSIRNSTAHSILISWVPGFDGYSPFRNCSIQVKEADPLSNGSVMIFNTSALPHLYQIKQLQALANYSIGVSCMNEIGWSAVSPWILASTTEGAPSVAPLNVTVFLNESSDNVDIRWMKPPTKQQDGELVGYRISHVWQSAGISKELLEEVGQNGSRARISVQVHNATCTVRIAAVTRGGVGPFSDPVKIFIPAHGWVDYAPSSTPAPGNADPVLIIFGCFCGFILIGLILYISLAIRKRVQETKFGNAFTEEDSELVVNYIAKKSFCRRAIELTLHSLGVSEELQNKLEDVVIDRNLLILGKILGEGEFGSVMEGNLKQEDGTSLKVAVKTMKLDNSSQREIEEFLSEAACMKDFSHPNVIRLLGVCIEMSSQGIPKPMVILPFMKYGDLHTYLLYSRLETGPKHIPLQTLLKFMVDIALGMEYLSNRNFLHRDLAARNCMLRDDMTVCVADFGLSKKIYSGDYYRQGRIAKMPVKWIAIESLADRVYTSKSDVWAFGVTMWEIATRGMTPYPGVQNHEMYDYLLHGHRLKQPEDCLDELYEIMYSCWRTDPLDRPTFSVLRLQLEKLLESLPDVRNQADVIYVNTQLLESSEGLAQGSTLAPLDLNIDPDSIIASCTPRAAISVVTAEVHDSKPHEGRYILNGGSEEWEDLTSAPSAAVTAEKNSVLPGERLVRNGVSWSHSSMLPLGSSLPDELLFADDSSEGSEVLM
Description: as §1

[7] = target: T7, CK2alpha2 (Homo sapiens, UniProt P19784)
T7 construct: purchased ProQinase (Freiburg, Germany)
Description: as §1

[8] = target: T8, NEK11 (Homo sapiens, UniProt Q8NG66)
T8 construct: purchased ProQinase (Freiburg, Germany)
T8 sequence (Q8NG66 1-645): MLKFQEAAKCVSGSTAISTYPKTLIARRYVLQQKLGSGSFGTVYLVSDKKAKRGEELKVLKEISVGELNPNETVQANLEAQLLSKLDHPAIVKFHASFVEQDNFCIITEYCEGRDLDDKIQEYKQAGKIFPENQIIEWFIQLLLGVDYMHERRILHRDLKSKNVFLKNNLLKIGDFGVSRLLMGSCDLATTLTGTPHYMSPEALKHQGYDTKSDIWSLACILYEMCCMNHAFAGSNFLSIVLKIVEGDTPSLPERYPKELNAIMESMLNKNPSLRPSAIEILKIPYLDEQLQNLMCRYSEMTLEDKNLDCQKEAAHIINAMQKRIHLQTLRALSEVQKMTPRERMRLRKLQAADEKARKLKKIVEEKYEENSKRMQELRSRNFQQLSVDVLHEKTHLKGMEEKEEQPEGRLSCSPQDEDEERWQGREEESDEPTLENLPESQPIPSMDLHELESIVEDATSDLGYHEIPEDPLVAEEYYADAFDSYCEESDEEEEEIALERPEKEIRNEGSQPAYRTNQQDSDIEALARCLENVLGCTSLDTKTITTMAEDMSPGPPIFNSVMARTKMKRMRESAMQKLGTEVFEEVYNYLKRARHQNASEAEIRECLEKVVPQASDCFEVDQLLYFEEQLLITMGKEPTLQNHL
Description: as §1

T4 sequence (Q05397 whole entry): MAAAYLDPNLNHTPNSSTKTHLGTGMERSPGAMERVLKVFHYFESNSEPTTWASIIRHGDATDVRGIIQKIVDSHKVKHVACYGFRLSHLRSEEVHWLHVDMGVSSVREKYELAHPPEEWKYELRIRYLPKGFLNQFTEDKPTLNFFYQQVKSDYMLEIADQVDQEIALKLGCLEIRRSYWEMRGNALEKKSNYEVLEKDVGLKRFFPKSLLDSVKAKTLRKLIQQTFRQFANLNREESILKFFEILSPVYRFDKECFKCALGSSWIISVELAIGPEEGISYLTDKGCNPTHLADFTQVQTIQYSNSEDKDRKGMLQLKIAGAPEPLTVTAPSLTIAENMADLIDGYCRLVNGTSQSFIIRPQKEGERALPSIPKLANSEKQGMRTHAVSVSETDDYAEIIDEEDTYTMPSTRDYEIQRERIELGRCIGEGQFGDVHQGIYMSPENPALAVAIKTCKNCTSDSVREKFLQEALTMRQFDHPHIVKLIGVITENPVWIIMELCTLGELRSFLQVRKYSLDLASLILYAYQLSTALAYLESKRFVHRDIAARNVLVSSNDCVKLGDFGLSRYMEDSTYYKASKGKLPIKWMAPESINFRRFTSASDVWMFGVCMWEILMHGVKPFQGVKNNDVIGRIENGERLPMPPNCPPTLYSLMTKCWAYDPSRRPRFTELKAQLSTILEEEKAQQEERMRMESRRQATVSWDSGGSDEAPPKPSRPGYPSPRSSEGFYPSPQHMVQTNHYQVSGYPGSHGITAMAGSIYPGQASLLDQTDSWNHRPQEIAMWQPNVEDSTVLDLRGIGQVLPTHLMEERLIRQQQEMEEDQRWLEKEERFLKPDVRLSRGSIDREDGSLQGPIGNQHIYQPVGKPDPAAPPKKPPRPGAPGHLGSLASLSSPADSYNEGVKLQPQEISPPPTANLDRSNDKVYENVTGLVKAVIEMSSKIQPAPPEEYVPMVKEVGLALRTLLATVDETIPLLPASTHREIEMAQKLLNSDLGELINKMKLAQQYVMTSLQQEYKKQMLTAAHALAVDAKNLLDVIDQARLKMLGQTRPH
T5 sequence (Q9BUB5 whole entry): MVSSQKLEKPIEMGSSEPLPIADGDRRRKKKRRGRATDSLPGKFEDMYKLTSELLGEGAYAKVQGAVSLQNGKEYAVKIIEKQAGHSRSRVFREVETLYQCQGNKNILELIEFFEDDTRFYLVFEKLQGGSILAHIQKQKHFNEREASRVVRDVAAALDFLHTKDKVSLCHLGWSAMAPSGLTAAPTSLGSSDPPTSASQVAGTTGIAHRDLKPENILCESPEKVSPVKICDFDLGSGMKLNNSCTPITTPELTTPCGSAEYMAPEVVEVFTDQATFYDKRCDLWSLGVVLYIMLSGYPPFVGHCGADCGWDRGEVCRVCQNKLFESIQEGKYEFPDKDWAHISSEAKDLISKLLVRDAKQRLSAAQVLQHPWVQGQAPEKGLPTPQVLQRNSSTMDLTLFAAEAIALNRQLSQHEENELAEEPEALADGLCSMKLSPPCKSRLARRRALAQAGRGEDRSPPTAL
T2 sequence (P11802 whole entry): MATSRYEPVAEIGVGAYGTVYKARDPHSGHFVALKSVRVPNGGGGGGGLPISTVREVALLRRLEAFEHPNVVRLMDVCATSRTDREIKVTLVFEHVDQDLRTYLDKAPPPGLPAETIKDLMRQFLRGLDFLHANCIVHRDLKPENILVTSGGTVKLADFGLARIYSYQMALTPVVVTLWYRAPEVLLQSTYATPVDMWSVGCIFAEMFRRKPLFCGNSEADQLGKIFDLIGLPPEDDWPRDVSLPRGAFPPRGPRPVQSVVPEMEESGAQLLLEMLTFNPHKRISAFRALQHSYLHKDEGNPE
T2 sequence (P24385 whole entry partner): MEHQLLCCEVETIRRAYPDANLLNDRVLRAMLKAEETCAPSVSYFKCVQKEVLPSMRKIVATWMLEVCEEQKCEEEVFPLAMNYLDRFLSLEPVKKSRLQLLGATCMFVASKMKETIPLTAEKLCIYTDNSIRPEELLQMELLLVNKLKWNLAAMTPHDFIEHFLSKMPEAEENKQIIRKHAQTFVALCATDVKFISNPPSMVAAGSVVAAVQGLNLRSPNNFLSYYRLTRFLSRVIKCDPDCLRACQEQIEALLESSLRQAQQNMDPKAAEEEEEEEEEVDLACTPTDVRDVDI
T7 sequence (P19784 whole entry): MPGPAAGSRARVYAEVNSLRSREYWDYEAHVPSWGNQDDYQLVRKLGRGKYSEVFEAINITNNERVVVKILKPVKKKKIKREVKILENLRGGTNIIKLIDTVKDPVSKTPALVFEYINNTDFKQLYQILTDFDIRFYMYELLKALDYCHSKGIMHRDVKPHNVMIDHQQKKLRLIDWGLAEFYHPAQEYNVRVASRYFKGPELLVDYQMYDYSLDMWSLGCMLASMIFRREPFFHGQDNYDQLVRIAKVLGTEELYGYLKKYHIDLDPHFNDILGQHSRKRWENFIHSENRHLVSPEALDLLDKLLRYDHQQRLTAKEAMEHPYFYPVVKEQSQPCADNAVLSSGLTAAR

O=C(Cc1ccccc1)Nc1ccc(F)c(Nc2ccc3c(c2)CCCCC3=O)c1 [Compound 100]
Residual activity ([1]; 1.0E-05 M): 93 % of control
Residual activity ([1]; 1.0E-06 M): 97 % of control
Residual activity ([2]; 1.0E-05 M): 94 % of control
Residual activity ([2]; 1.0E-06 M): 104 % of control
Residual activity ([3]; 1.0E-05 M): 96 % of control
Residual activity ([3]; 1.0E-06 M): 96 % of control
Residual activity ([4]; 1.0E-05 M): 88 % of control
Residual activity ([4]; 1.0E-06 M): 116 % of control
Residual activity ([5]; 1.0E-05 M): 95 % of control
Residual activity ([5]; 1.0E-06 M): 90 % of control
Residual activity ([6]; 1.0E-05 M): 73 % of control
Residual activity ([6]; 1.0E-06 M): 103 % of control
Residual activity ([7]; 1.0E-05 M): 134 % of control
Residual activity ([7]; 1.0E-06 M): 137 % of control
Residual activity ([8]; 1.0E-05 M): 110 % of control
Residual activity ([8]; 1.0E-06 M): 97 % of control

O=C(Nc1ccc(F)c(Nc2ccc3c(c2)CCCCC3=O)c1)c1cccc(F)c1 [Compound 109]
Residual activity ([1]; 1.0E-05 M): 99 % of control
Residual activity ([1]; 1.0E-06 M): 88 % of control
Residual activity ([2]; 1.0E-05 M): 108 % of control
Residual activity ([2]; 1.0E-06 M): 93 % of control
Residual activity ([3]; 1.0E-05 M): 91 % of control
Residual activity ([3]; 1.0E-06 M): 97 % of control
Residual activity ([4]; 1.0E-05 M): 88 % of control
Residual activity ([4]; 1.0E-06 M): 104 % of control
Residual activity ([5]; 1.0E-05 M): 91 % of control
Residual activity ([5]; 1.0E-06 M): 92 % of control
Residual activity ([6]; 1.0E-05 M): 85 % of control
Residual activity ([6]; 1.0E-06 M): 101 % of control
Residual activity ([7]; 1.0E-05 M): 118 % of control
Residual activity ([7]; 1.0E-06 M): 119 % of control
Residual activity ([8]; 1.0E-05 M): 104 % of control
Residual activity ([8]; 1.0E-06 M): 86 % of control
